Reference: US10870647B2, “Imidazopyridine derivative, method for preparing same, and pharmaceutical composition containing same as active ingredient for preventing or treating cancer” (DAEGU-GYEONGBUK MEDICAL INNOVATION FOUNDATION, priority 2016, dated 2020)

Legend:
Assay in all cases: Kinase selectivity, scanMAX Kinase assay panel (DiscoverX), % control at 1 uM
Assay type in all cases: binding
[1] = target: T1, scanMAX Kinase assay panel (Homo sapiens, UniProt O75116); conditions: ROCK2; 1 uM; read-out: Percent Control (%)
T1 construct: purchased DiscoverX
T1 sequence (O75116 whole entry): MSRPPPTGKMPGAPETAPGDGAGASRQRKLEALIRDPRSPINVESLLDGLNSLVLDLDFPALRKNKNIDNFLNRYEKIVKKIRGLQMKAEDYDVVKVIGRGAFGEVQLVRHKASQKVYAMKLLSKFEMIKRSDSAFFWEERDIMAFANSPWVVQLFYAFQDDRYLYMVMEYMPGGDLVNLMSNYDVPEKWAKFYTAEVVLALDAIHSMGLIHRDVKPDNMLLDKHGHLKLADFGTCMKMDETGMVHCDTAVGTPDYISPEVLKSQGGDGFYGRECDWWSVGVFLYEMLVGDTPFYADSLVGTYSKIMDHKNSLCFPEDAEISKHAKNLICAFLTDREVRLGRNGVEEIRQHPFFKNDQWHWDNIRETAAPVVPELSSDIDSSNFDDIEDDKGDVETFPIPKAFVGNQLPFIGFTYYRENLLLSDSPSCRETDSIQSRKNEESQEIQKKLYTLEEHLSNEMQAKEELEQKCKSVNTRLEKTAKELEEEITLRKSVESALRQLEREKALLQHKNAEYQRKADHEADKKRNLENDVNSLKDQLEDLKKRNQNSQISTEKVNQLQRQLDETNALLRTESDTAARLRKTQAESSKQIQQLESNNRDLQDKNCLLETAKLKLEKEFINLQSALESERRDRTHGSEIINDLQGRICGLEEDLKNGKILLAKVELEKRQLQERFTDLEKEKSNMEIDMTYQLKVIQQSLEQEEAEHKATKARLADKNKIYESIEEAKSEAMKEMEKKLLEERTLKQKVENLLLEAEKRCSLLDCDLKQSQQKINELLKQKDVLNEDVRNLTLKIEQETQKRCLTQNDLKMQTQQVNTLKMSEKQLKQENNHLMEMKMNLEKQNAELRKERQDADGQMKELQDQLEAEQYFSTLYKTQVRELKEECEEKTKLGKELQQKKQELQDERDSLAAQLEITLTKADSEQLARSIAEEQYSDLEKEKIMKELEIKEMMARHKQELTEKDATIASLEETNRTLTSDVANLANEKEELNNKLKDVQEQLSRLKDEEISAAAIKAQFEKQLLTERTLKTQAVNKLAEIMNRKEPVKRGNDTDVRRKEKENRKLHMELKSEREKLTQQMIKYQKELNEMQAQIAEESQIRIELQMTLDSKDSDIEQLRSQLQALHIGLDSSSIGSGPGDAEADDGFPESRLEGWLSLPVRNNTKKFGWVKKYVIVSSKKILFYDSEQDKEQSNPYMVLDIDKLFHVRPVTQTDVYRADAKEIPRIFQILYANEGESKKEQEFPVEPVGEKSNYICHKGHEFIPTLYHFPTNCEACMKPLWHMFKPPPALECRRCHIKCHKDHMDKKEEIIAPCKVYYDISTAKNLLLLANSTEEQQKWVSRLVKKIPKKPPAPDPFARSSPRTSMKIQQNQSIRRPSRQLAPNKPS
Summary of the method: (§1)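 A single concentration of 1 uM, in DMSO, is applied across the kinase panel. Activity against an individual enzyme is assigned where % control is less than 35.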

[2] = target: T2, scanMAX Kinase assay panel (Homo sapiens, UniProt O75716); conditions: STK16; 1 uM; read-out: Percent Control (%)
T2 construct: purchased DiscoverX
T2 sequence (O75716 whole entry): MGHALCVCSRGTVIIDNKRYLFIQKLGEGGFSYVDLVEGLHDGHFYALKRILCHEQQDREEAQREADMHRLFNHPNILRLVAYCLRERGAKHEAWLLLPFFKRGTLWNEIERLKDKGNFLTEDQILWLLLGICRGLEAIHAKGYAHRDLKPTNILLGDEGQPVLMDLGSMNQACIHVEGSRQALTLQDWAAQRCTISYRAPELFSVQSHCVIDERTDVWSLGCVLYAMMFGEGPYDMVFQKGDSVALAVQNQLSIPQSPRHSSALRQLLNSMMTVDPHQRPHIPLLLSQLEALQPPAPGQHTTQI
Summary of the method: as §1

[3] = target: T3, scanMAX Kinase assay panel (Homo sapiens, UniProt P08631); conditions: HCK; 1 uM; read-out: Percent Control (%)
T3 construct: purchased DiscoverX
T3 sequence (P08631 whole entry): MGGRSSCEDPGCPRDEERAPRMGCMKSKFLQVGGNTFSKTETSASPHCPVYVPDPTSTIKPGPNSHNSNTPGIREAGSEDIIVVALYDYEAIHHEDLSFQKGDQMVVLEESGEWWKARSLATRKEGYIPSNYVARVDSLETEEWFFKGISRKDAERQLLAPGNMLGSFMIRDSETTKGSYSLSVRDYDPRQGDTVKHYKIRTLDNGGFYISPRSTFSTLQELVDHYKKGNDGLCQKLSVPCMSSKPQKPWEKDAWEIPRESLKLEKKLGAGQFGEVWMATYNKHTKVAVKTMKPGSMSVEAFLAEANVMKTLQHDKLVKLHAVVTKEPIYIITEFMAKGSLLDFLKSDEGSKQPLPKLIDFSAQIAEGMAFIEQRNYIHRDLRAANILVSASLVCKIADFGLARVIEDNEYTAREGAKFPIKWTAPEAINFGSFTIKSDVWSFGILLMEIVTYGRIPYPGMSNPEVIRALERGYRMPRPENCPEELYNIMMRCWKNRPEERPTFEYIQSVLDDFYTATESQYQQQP
Summary of the method: as §1

[4] = target: T4, scanMAX Kinase assay panel (Homo sapiens, UniProt P36888, D835V); conditions: FLT3 (D835V); 1 uM; read-out: Percent Control (%)
T4 construct: purchased DiscoverX
T4 sequence (P36888 27-993 D835V): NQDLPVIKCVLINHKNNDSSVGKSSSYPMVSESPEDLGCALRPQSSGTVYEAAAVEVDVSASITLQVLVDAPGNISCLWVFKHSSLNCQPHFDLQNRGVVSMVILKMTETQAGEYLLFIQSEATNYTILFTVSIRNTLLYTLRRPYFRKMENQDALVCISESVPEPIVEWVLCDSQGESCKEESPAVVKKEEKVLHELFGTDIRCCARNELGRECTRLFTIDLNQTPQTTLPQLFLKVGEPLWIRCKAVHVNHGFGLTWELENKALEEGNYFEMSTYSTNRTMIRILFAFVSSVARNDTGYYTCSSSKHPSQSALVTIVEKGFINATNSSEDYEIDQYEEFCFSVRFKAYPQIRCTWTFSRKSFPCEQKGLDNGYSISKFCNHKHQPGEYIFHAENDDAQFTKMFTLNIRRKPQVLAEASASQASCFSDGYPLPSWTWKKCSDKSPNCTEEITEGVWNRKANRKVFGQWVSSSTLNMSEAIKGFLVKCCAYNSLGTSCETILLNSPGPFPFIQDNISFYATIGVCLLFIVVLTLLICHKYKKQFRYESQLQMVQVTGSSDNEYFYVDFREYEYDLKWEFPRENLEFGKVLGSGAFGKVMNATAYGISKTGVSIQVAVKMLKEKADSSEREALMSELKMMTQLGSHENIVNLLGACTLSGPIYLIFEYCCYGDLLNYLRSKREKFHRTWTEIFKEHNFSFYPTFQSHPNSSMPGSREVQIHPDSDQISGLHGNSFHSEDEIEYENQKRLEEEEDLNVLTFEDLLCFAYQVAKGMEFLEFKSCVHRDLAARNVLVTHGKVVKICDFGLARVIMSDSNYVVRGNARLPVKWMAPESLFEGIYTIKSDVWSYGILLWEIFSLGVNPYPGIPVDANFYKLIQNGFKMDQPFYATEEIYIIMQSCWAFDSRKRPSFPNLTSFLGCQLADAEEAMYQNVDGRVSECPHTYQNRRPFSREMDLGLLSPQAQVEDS
Summary of the method: as §1

[5] = target: T5, scanMAX Kinase assay panel (Homo sapiens, UniProt Q6ZWH5); conditions: NEK10; 1 uM; read-out: Percent Control (%)
T5 construct: purchased DiscoverX
T5 sequence (Q6ZWH5 1-1172): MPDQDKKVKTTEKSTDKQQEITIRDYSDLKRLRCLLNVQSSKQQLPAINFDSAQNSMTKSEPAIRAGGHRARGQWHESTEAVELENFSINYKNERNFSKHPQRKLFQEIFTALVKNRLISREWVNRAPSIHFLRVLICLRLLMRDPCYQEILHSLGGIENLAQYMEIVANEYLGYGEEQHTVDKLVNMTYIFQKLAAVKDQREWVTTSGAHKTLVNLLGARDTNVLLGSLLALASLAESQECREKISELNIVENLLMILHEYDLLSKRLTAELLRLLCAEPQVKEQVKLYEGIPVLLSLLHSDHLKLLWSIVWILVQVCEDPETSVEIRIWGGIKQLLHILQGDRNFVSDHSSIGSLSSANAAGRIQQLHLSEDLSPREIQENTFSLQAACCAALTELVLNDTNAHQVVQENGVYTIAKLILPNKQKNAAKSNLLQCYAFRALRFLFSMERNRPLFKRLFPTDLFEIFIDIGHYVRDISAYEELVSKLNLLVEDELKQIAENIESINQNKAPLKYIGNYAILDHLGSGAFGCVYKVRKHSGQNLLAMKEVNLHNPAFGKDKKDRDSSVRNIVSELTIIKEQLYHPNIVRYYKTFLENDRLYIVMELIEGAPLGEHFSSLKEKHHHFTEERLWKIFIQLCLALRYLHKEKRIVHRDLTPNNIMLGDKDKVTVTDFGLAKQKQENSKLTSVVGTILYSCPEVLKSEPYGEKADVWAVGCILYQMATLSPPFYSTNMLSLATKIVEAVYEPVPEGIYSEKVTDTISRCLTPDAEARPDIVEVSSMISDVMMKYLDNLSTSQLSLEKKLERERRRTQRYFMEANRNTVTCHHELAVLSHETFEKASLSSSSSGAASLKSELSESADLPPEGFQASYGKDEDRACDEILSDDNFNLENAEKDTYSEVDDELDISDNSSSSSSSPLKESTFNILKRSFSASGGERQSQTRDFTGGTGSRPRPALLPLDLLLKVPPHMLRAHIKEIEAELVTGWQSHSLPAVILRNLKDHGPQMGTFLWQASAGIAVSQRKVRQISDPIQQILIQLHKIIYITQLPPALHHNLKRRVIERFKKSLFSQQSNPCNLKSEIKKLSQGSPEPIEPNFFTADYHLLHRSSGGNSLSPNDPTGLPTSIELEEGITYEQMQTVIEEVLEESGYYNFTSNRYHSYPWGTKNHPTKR
Summary of the method: as §1

[6] = system: scanMAX Kinase assay panel; conditions: 1 uM
Summary of the method: as §1

| SMILES | remaining binding at 1 µM [1] | remaining binding at 1 µM [2] | remaining binding at 1 µM [3] | remaining binding at 1 µM [4] | remaining binding at 1 µM [5] | Percent Control (%) ([6]; EGFR (L747-E749del, A750P)) | Percent Control (%) ([6]; EGFR (L747-S752del, P753S)) | Percent Control (%) ([6]; EGFR (L747-T751del, Sins)) | Percent Control (%) ([6]; FLT3 (ITD)) | Percent Control (%) ([6]; FLT3 (ITD, D835V)) | Percent Control (%) ([6]; FLT3 (ITD, F691L)) |
| --- | --- | --- | --- | --- | --- | --- | --- | --- | --- | --- | --- |
| Cc1ccc(NC(=O)C2(C(=O)Nc3ccc(F)cc3)CC2)cc1C#Cc1cnc2c(Nc3cnn(C(C)C)c3)cccn12 [Example 78] | 100% | 99% | 71% | 87% | 100% | 100% | 87% | 100% | 71% | 35% | 31% |
| Cc1cn(-c2cc(NC(=O)c3ccc(C)c(C#Cc4cnc5c(Nc6cnn(C)c6)cccn45)c3)cc(C(F)(F)F)c2)cn1 [Example 12, 4-methyl-N-(3-(4-methyl-1H-imidazol-1-yl)-5-(trifluoromethyl)phenyl)-3-((8-((1-methyl-1H-pyrazol-4-yl)amino)imidazo[1,2-a]pyridin-3-yl)ethynyl)benzamide] | 100% | 70% | 1% | 27% | 100% | 5% | 6% | 6% | 4% | 100% | 45% |
| Cc1ccc(C(=O)Nc2ccc(CN3CCN(C)CC3)c(C(F)(F)F)c2)cc1C#Cc1cnc2c(Nc3cnn(C)c3)cccn12 [Example 1, 4-methyl-3-((8-((1-methyl-1H-pyrazol-4-yl)amino)imidazo[1,2-a]pyridin-3-yl)ethynyl)-N-(4-((4-methylpiperazin-1-yl)methyl)-3-(trifluoromethyl)phenyl)benzamide] | 15% | 38% | 0% | 0% | 100% | 3% | 1% | 2% | 1% | 20% | 2% |
